Like-named read-outs stand apart in the source and are kept apart here.
Tests used:
[1] = tested on: HIV-1 N119 (Y181C); test: Inhibition of virus-induced cytopathogenicity in MT-4 cells, NNRTI-resistant mutant N119; type: cell-based; settings: for EC50: Human immunodeficiency virus 1, MT4, read-out: EC50 N119
Description: (§1) HIV-1IIIB and HIV-2 CBL-20 strains were obtained from the supernatants of persistently infected H9/IIIB and CEM cells, respectively. HIV-1 and HIV-2 stock solutions had titres of 4.5 × 10^7 and 1.4 × 10^6 50% cell culture infectious doses (CCID50)/ml, respectively. […] The K103R + V179D + P225H mutant (EFVR) was derived from an IIIB strain passaged in MT-4 cells in the presence of Efavirenz (up to 2 μM). N119, A17 and EFV^R stock solutions had titres of 1.2 × 10^8, 2.1 × 10^7, and 4.0 × 10^7 CCID50/ml, respectively.
(§2) The activity of the test compounds against the replication of HIV-1 wt and mutant strains (N119, A17, EFV^R, AZT^R, MDR, SAQ^R) and HIV-2 wt in acutely infected cells was based on the inhibition of virus-induced cytopathogenicity in MT-4 and C8166 cells, respectively. Briefly, 50 μL of culture medium containing 1 × 10^4 cells was added to each well of flat-bottom microtitre trays containing 50 μL of culture medium with or without different serial concentrations of test compounds. Then, 20 μL of an HIV suspension (containing the appropriate amount of CCID50 required to cause complete cytopathogenicity on day 4, final multiplicity of infection [m.o.i.] 0.01) was added.

[2] = tested on: cell-free HIV-2; test: Virucidal activity against cell-free HIV-2 (Reed-Muench titration); type: cell-based
Description: (§3) Cell-free, high-titre HIV-1 and HIV-2 stock solutions were exposed to the test compounds for 2 h at 0 °C or 37 °C. At the end of incubation, residual infectivity was determined using the Reed–Muench end-point titration method, as described below.
(§4) Titration was performed in C8166 cells using the standard limiting dilution method (dilution 1:2, four replica wells/dilution) in 96-well plates.

[3] = tested on: HIV-1 wt; test: Time of addition assay in MT-4 cells; type: cell-based; settings: compound 6 15 μM, EFV 0.05 μM; MT-4, m.o.i. 5
Description: 2 × 10^4 MT-4 cells were infected for 1 h at 20 °C with HIV-1 at a high multiplicity of infection (m.o.i. = 5), corresponding to 5 cell culture infectious dose 50 per cell (CCID50/cell).
as §4
Virus yields were determined using the Reed–Muench method. Bars are mean values, and whiskers are standard deviations (SD) of three independent experiments.

[4] = tested on: HIV-2 CBL-20 strain; test: Inhibition of HIV-2-induced cytopathogenicity in C8166 cells (MTT); type: cell-based
Description: as §1, §2

[5] = tested on: HIV-1 AZTR (67N, 70R, 215F, 219Q); test: Inhibition of virus-induced cytopathogenicity in MT-4 cells, NRTI-resistant mutant AZTR; type: cell-based; settings: for EC50: Human immunodeficiency virus 1, MT4, read-out: EC50 AZTR
Description: as §1, §2

[6] = tested on: HIV-1 A17 (K103N + Y181C); test: Inhibition of virus-induced cytopathogenicity in MT-4 cells, NNRTI-resistant mutant A17; type: cell-based; settings: for EC50: Human immunodeficiency virus 1, MT4, read-out: EC50 A17
Description: as §1, §2

[7] = tested on: HIV-1 MDR (74V, 41L, 106A, 215Y); test: Inhibition of virus-induced cytopathogenicity in MT-4 cells, NRTI-resistant mutant MDR; type: cell-based; settings: for EC50: Human immunodeficiency virus 1, MT4, read-out: EC50 MDR
Description: as §1, §2

[8] = target: T1, HIV-1 reverse transcriptase (Human immunodeficiency virus type 1 group M subtype B, UniProt P04585); test: Reverse transcriptase enzyme assay; type: biochemical
T1 construct: recombinant HIV-1 reverse transcriptase

[9] = tested on: HIV-1 IIIB strain; test: microbe, parasite or virus in culture; type: cell-based; settings: for EC50: Human immunodeficiency virus 1, IIIB
Description: as §1, §2

[10] = microbe, parasite or virus in culture; type: cell-based, HIV-1; settings: all tested strains (HIV-1 wt, mutants, HIV-2)
Description: as §1, §2

[11] = tested on: HIV-1 EFVR (K103R + V179D + P225H); test: Inhibition of virus-induced cytopathogenicity in MT-4 cells, NNRTI-resistant mutant EFVR; type: cell-based; settings: for EC50: Human immunodeficiency virus 1, MT4, read-out: EC50 EFVR
Description: as §1, §2

[12] = tested on: cell-free HIV-1; test: Virucidal activity against cell-free HIV-1 (Reed-Muench titration); type: cell-based; settings: for Infectivity inactivation of cell-free HIV-1: 37 °C
Description: as §3, §4

[13] = Cytotoxicity in mock-infected MT-4 cells (MTT method); type: cell-based; settings: human
Description: as §2, with “added. After incubation at 37 °C, cell viability was determined using the […] (MTT) method ([Pauwels et al., 1988]). The cytotoxicity of the test compounds was evaluated in parallel with their antiviral activity through the viability of mock-infected, treated cells, as monitored by the MTT method and described elsewhere ([Morellet et al., 1994]).” for “added.”

[14] = tested on: chronically HIV-1-infected H9 cells / uninfected C8166 cells; test: Syncytium formation in chronically infected H9/C8166 cocultures (entry assay); type: cell-based; settings: 36 h
Description: Chronically infected H9 cells were washed and cocultured with uninfected C8166 cells (ratio 1:500) in the absence or presence of test inhibitors. Following 36 h of incubation at 37 °C, cocultures were monitored by optical microscopy, syncytia were counted, and those found in drug-treated cocultures were reported as a percentage of those counted in untreated cocultures ([Wang et al., 2004]).
In this assay, syncytia were formed as a result of the interaction of env-encoded glycoproteins (present on the outer membrane of chronically infected H9 cells) with the CD4 of cocultured C8166 cells.
Figure 3 Comparative activity of compound 6 (30 μM) and dextran sulphate (0.5 μM) in preventing syncytium formation in chronically infected H9/C8166 cocultures. The H9/C8166 ratio was […]. The cells were incubated for 36 h at 37 °C. Data represent mean values of at least three independent determinations of syncytial numbers using an optical microscope. Bars are mean values, and whiskers are standard deviations (SD) of at least three independent experiments.

[15] = tested on: HIV-1 SAQR (L10F, G48V, L90M); test: Inhibition of virus-induced cytopathogenicity in MT-4 cells, PRI-resistant mutant SAQR; type: cell-based; settings: for EC50: Human immunodeficiency virus 1, MT4, read-out: EC50 SAQR
Description: as §1, §2

[16] = target: T2, HIV-1 recombinant integrase (rIN) (Human immunodeficiency virus type 1 group M subtype B, UniProt P04585); test: Integrase (rIN) enzyme assays: 3'-processing and strand transfer; type: biochemical; settings: for IC50: recombinant HIV-1 integrase
T2 construct: HIV-1 recombinant integrase (rIN); made in house
From the text: ^aCompound concentration (µM) required to reduce the amount of 3’-end-labeled duplex of 21/19mers substrates, in 3’-processing and strand-transfer reactions catalyzed by the recombinant HIV-1 integrase, by 50%. Data represent mean values for three independent determinations.

[17] = 0 °C, compound 6 80 μM, AMPH-B 100 μM
[18] = Human immunodeficiency virus 2, C8166, read-out: EC50 HIV-2
[19] = Human immunodeficiency virus 2, C8166, read-out: EC50 HIV-2 (Table 2)
[20] = MT4, read-out: EC50 HIV-1 (Table 2)

With `O=c1c2ccccc2sn1NS(=O)(=O)c1ccccc1` [Compound 6, N-(3-Oxo-1,2-benzisothiazol-2(3H)-yl)benzenesulfonamide] the EC50 [1] was 7 ± 1.5 µM, the “Selectivity Index (SI = CC50/EC50) N119” value ([1]; in round brackets) was 12 and the “Effect on HIV-2 infectivity, incubation at 0 °C” value [2, 17] was “failed to significantly affect HIV-2 infectivity”. The “Infectivity inactivation of cell-free HIV-2” value ([2]; 25 and 12.5 μM, 37 °C) was “only marginal or no effects”, the “Inactivation of HIV-2 virion infectivity” value ([2]; 37 °C, compound 6 80 μM, AMPH-B 100 μM) was “approximately 2 log10” and the “Infectivity inactivation of cell-free HIV-2” value ([2]; 100 and 50 μM, 37 °C) was “strongly inactivated the infectivity”. For the same compound, the “Infectious virus yield when compound present only during the 1-h infection period” value [3] was “infectious virus yield similar to that of the untreated infected controls”, the “Time of addition p.i. up to which the compound still prevents virus yield” value [3] was “up to 12 h” and the EC50 [4, 18] was 7 ± 0.7 µM. The EC50 [4, 19] was 7 ± 0.7 µM, the “Selectivity Index (SI = CC50/EC50) HIV-2” value ([4]; in round brackets) was 12 and the EC50 [5] was 6 ± 0.7 µM. For the same compound, the “Selectivity Index (SI = CC50/EC50) AZTR” value ([5]; in round brackets) was 14, the EC50 [6] was 8 ± 1 µM and the “Selectivity Index (SI = CC50/EC50) A17” value ([6]; in round brackets) was 10. The EC50 [7] was 4 ± 1.5 µM, the “Selectivity Index (SI = CC50/EC50) MDR” value ([7]; in round brackets) was 21 and the “Inhibition of recombinant HIV-1 RT” value ([8]; at concentrations of 30 μM) was “none of the benzenesulfonamides were active”. For the same compound, the IC50 ([8]; virion-associated RT) was greater than 30 µM, the EC50 ([9]; MT4, read-out: EC50 HIV-1) was 8 ± 3 µM and the EC50 [9, 20] was 8 ± 3 µM. The “Selectivity Index (SI = CC50/EC50) HIV-1” value ([9]; IIIB strain, in round brackets) was 10, the “Selectivity Index (SI) against all tested strains” value [10] was “around 10” and the EC50 [11] was 7 ± 2 µM. The “Selectivity Index (SI = CC50/EC50) EFVR” value ([11]; in round brackets) was 12, the “Effect on HIV-1 infectivity, incubation at 0 °C” value [12, 17] was “failed to affect HIV-1 infectivity” and the “Infectivity inactivation of cell-free HIV-1” value ([12]; 25 and 12.5 μM) was “only marginal or no effects”. The “Infectivity inactivation of cell-free HIV-1” value ([12]; 100 and 50 μM) was “strongly inactivated the infectivity”, the “Inactivation of HIV-1 infectivity” value ([12]; 2 h at 37 °C, compound 6 80 μM, AMPH-B 100 μM) was “more than 3 log10” and the CC50 at 4 days [13] was 86 ± 4 µM. The “Interference with syncytia formation / very early events (adsorption/attachment/fusion)” value ([14]; 30 μM) was “did not interfere”, the EC50 [15] was 8 ± 0.7 µM and the “Selectivity Index (SI = CC50/EC50) SAQR” value ([15]; in round brackets) was 10. For the same compound, the “Inhibition of recombinant HIV-1 IN” value ([16]; at concentrations of 30 μM) was “none of the benzenesulfonamides were active”, the IC50 ([16]; read-out: IC50 3'-Processing) was greater than 30 µM and the IC50 ([16]; read-out: IC50 Strand-transfer) was greater than 30 µM.

For `O=C1Nc2ccc(Cl)cc2[C@@](C#CC2CC2)(C(F)(F)F)O1` [EFV, efavirenz, reference compound], the EC50 [1] was 0.008 ± 0.003 µM, the “Infectious virus yield when compound present only during the 1-h infection period” value [3] was “infectious virus yield similar to that of the untreated infected controls” and the “Time of addition p.i. up to which the compound still prevents virus yield” value [3] was no more than 4 h. For the same compound, the EC50 [4, 18] was greater than 20 µM, the EC50 [4, 19] was greater than 20 µM and the EC50 [5] was 0.002 ± 0.0003 µM. For the same compound, the EC50 [6] was 0.3 ± 0.009 µM, the EC50 [7] was 0.004 µM and the EC50 ([9]; MT4, read-out: EC50 HIV-1) was 0.002 ± 0.0003 µM. For the same compound, the EC50 [9, 20] was 0.002 ± 0.0003 µM, the EC50 [11] was 3 ± 1 µM and the CC50 at 4 days ([13]; MT-4, MTT method) was 30 ± 5 µM. The EC50 [15] was 0.007 ± 0.005 µM.

For dextran sulphate [reference compound], the “Prevention of syncytia formation” value ([14]; 0.5 μM) was 98%.

Source: publication PMC12627007, “HIV nucleocapsid proteins as targets for novel 1,2-benzisothiazol-3(2H)-one benzenesulfonamides: synthesis and antiretroviral activity” (Frontiers in Microbiology, 2025)
